Results as given in paper PMC5267425, “Identification of small molecule modulators of HIV-1 Tat and Rev protein accumulation” (Retrovirology, 2017).
“And” between values parts separate entries of the source, which are not always exact repeats. Identical values can stand only once.

Test system: cellular gene expression in HeLa rtTA HIV∆Mls cells
Conditions: 9147791-treated cells, two replicates

## Cc1cc(NCc2cccnc2)n2ncc(-c3ccc(Cl)cc3)c2n1 [Compound 791, 3-(4-chlorophenyl)-5-methyl-N-(3-pyridinylmethyl)pyrazolo[1,5-a]pyrimidin-7-amine]
Gene ACER2
  ACER2 expression level: 0.80 and 0.82
Gene ADO
  ADO expression level: 10.11 and 9.67
Gene AKIRIN2
  AKIRIN2 expression level: 37.74 and 36.76
Gene ALG5
  ALG5 expression level: 17.63 and 17.19
Gene ALKBH8
  ALKBH8 expression level: 2.78 and 2.65
Gene ANKRD40
  ANKRD40 expression level: 18.60 and 17.61
Gene ANKRD50
  ANKRD50 expression level: 8.61 and 9.09
Gene AP3S2
  AP3S2 expression level: 6.99 and 6.84
Gene ARL4D
  ARL4D expression level: 11.90 and 11.09
Gene ARMC10
  ARMC10 expression level: 25.33 and 26.90
Gene ARSJ
  ARSJ expression level: 5.86 and 6.05
Gene ATG4B
  ATG4B expression level: 24.43 and 25.27
Gene ATP6V1B2
  ATP6V1B2 expression level: 44.15 and 44.20
Gene AUP1
  AUP1 expression level: 93.65 and 90.36
Gene AVL9
  AVL9 expression level: 14.40 and 14.91
Gene AXIN1
  AXIN1 expression level: 20.61 and 19.36
Gene B4GALT5
  B4GALT5 expression level: 32.71 and 30.46
Gene BCL7A
  BCL7A expression level: 4.81 and 5.05
Gene BICD1
  BICD1 expression level: 5.82 and 5.80
Gene BIVM
  BIVM expression level: 26.38 and 27.51
Gene BMP2K
  BMP2K expression level: 8.20 and 7.95
Gene C1orf27
  C1orf27 expression level: 10.72 and 10.90
Gene C1orf103
  C1orf103 expression level: 11.43 and 11.72
Gene C1orf131
  C1orf131 expression level: 8.80 and 9.06
Gene C2orf49
  C2orf49 expression level: 7.96 and 8.04
Gene C3orf19
  C3orf19 expression level: 6.85 and 6.46
Gene C4orf27
  C4orf27 expression level: 19.50 and 20.20
Gene C5orf37
  C5orf37 expression level: 8.35 and 8.03
Gene C5orf45
  C5orf45 expression level: 14.96 and 13.97
Gene C5orf51
  C5orf51 expression level: 28.44 and 30.27
Gene C7orf23
  C7orf23 expression level: 28.60 and 29.63
Gene C7orf25
  C7orf25 expression level: 13.24 and 13.90
Gene C9orf6
  C9orf6 expression level: 11.84 and 11.91
Gene C9orf46
  C9orf46 expression level: 19.83 and 20.30
Gene C11orf57
  C11orf57 expression level: 12.07 and 11.50
Gene C11orf73
  C11orf73 expression level: 35.63 and 36.75
Gene C12orf35
  C12orf35 expression level: 5.77 and 5.55
Gene C12orf65
  C12orf65 expression level: 14.51 and 14.73
Gene C12orf73
  C12orf73 expression level: 7.32 and 7.68
Gene C13orf23
  C13orf23 expression level: 12.32 and 12.36
Gene C16orf72
  C16orf72 expression level: 10.69 and 10.57
Gene C17orf80
  C17orf80 expression level: 10.34 and 10.65
Gene C18orf25
  C18orf25 expression level: 6.56 and 6.86
Gene C18orf45
  C18orf45 expression level: 4.86 and 5.04
Gene C19orf55
  C19orf55 expression level: 5.99 and 6.29
Gene CCBL2
  CCBL2 expression level: 14.25 and 13.62
Gene CCDC25
  CCDC25 expression level: 31.76 and 30.83
Gene CCDC92
  CCDC92 expression level: 12.03 and 11.64
Gene CCNJ
  CCNJ expression level: 2.94 and 2.91
Gene CDK4
  CDK4 expression level: 162.09 and 164.93
Gene CDK17
  CDK17 expression level: 8.04 and 8.39
Gene CHCHD4
  CHCHD4 expression level: 19.84 and 19.36
Gene CHN2
  CHN2 expression level: 1.42 and 1.50
Gene CLCN2
  CLCN2 expression level: 5.16 and 5.28
Gene COG1
  COG1 expression level: 10.28 and 10.86
Gene COX19
  COX19 expression level: 6.58 and 7.00
Gene CREB1
  CREB1 expression level: 5.06 and 4.95
Gene CSGALNACT2
  CSGALNACT2 expression level: 10.98 and 11.46
Gene CSNK2A1
  CSNK2A1 expression level: 37.86 and 40.21
Gene CSRNP2
  CSRNP2 expression level: 6.76 and 6.32
Gene CUEDC2
  CUEDC2 expression level: 42.63 and 44.50
Gene DCI
  DCI expression level: 60.10 and 62.67
Gene DCLRE1A
  DCLRE1A expression level: 9.19 and 9.37
Gene DDB2
  DDB2 expression level: 110.42 and 109.59
Gene DDX50
  DDX50 expression level: 29.08 and 28.13
Gene DENND4B
  DENND4B expression level: 17.80 and 17.11
Gene DET1
  DET1 expression level: 3.28 and 3.58
Gene DGKQ
  DGKQ expression level: 6.10 and 5.97
Gene DLG4
  DLG4 expression level: 6.58 and 6.74
Gene DNAJB14
  DNAJB14 expression level: 5.32 and 5.63
Gene DNASE2
  DNASE2 expression level: 67.31 and 73.16
Gene DYM
  DYM expression level: 17.92 and 17.95
Gene EDEM1
  EDEM1 expression level: 13.02 and 13.54
Gene EIF2S3
  EIF2S3 expression level: 260.44 and 268.10
Gene EPRS
  EPRS expression level: 87.21 and 89.05
Gene ESCO1
  ESCO1 expression level: 5.82 and 5.63
Gene ESRRA
  ESRRA expression level: 58.60 and 54.56
Gene ETV6
  ETV6 expression level: 3.21 and 3.17
Gene FAIM3
  FAIM3 expression level: 2.34 and 2.22
Gene FAM83G
  FAM83G expression level: 15.73 and 15.43
Gene FAM102A
  FAM102A expression level: 15.44 and 14.97
Gene FAM107B
  FAM107B expression level: 26.06 and 26.60
Gene FAM119B
  FAM119B expression level: 5.44 and 5.43
Gene FAM176B
  FAM176B expression level: 1.37 and 1.42
Gene FAM179B
  FAM179B expression level: 3.35 and 3.46
Gene FAR1
  FAR1 expression level: 21.55 and 22.22
Gene FBXO22
  FBXO22 expression level: 18.71 and 19.58
Gene FBXW4
  FBXW4 expression level: 11.10 and 10.83
Gene FEM1C
  FEM1C expression level: 5.87 and 6.20
Gene FEZ2
  FEZ2 expression level: 28.49 and 26.84
Gene FLCN
  FLCN expression level: 15.28 and 15.93
Gene FLYWCH1
  FLYWCH1 expression level: 20.36 and 21.57
Gene FOSL2
  FOSL2 expression level: 35.73 and 35.26
Gene FOXF1
  FOXF1 expression level: 7.56 and 7.55
Gene FOXJ2
  FOXJ2 expression level: 9.27 and 9.86
Gene FXYD5
  FXYD5 expression level: 112.40 and 117.32
Gene GATA5
  GATA5 expression level: 1.79 and 1.70
Gene GJD3
  GJD3 expression level: 4.71 and 4.56
Gene GNA13
  GNA13 expression level: 17.15 and 16.92
Gene GORAB
  GORAB expression level: 7.75 and 7.67
Gene GOSR1
  GOSR1 expression level: 11.79 and 11.45
Gene GPC5
  GPC5 expression level: 9.86 and 10.11
Gene GPD1L
  GPD1L expression level: 13.45 and 13.69
Gene GTF2H3
  GTF2H3 expression level: 21.55 and 22.21
Gene HAUS3
  HAUS3 expression level: 7.54 and 8.11
Gene HAUS4
  HAUS4 expression level: 59.72 and 63.77
Gene HDHD2
  HDHD2 expression level: 9.17 and 8.71
Gene HECTD1
  HECTD1 expression level: 31.75 and 32.77
Gene HIF1A
  HIF1A expression level: 79.76 and 77.72
Gene HPS3
  HPS3 expression level: 15.09 and 14.61
Gene HRSP12
  HRSP12 expression level: 13.91 and 14.84
Gene HSD17B1
  HSD17B1 expression level: 4.57 and 4.64
Gene IFNGR1
  IFNGR1 expression level: 18.57 and 18.18
Gene INPP1
  INPP1 expression level: 8.36 and 7.77
Gene IPO13
  IPO13 expression level: 15.99 and 16.09
Gene IQCB1
  IQCB1 expression level: 10.15 and 11.00
Gene KCTD1
  KCTD1 expression level: 4.57 and 4.58
Gene KCTD13
  KCTD13 expression level: 10.32 and 11.29
Gene KIAA0232
  KIAA0232 expression level: 9.33 and 9.86
Gene KIAA0649
  KIAA0649 expression level: 25.63 and 26.16
Gene KIAA0753
  KIAA0753 expression level: 6.64 and 6.86
Gene KRR1
  KRR1 expression level: 19.83 and 18.92
Gene LARS
  LARS expression level: 72.55 and 69.28
Gene LGTN
  LGTN expression level: 39.45 and 39.33
Gene LRP5L
  LRP5L expression level: 3.26 and 3.08
Gene LRPPRC
  LRPPRC expression level: 66.45 and 68.25
